Several values for one entry are separate records, joined by “and”; a condition that tells them apart may be missing. Equal entries are not always repeated. Where two headings read alike, the source gives them in different places.
Assays:
[1] = system: PC-9 (KRAS wild type human lung adenocarcinoma cell line); assay: KRAS 3D-Cell Proliferation Assay, PC-9 (CellTiter-Glo 3D, 7 days); type: cell-based; conditions: PC-9 3D culture, read-out: Prolif PC9 3D ATP IC50
Method: Example 503: KRAS 3D-Cell Proliferation Assays. Cellular potencies of compounds are assessed by evaluating inhibition of proliferation in 3D cultures of homozygous mutant KRAS G12D human pancreatic cell lines (AsPC-1 and HPAC) as compared to a KRAS wild type human lung adenocarcinoma cell line (PC-9 and/or H1975). Cells are seeded into 384-well black round-bottom, ultra-low attachment assay plates in 50 uL cell growth medium (RPMI-1640 with 10% fetal bovine serum and 2 mM L-glutamine). After overnight incubation at 37° C. and 5% CO2, compounds solubilized in DMSO are added as dilution series to the wells in a total volume of 150 nL (0.3% DMSO final). The cells are incubated for 7 days at 37° C. and 5% CO2. Cell proliferation is quantitated by addition of 40 uL/well of CellTiter-GloO 3D (Promega), and the well contents are mixed 20× at high speed using liquid handling automation workstation (Bravo with 384-well head) and centrifuged at 1500 rpm for 2 minutes to eliminate bubbles. This reagent in combination with mechanical disruption releases the cellular ATP to promote activity in a luciferase-based enzyme/substrate chemiluminescent detection system. After a 30-minute incubation under ambient conditions with shaking and an additional 10 minutes without shaking, the luminescence is read on a plate reader (e.g. EnVision [PerkinElmer]). The results are normalized to percent inhibition based on the following control samples: DMSO (0% inhibition) and 1 uM staurosporine (100% inhibition). The normalized luminescence results are plotted against compound concentration, and the data are fit to a 4-parameter Hill equation to determine the IC50 values.

KRAS G12D = KRAS G12D (Homo sapiens (Human), UniProt P01116, G12D); assay: KRAS G12D LoEnz Biochemical Assay, BODIPY-GDP Exchange TR-FRET (SOS1-mediated nucleotide exchange); conditions: read-out: KRas (G12D) GDP HTRF IC50
KRAS WT [2] = molecular target: T1, KRAS WT (Homo sapiens (Human), UniProt P01116); assay: KRAS WT Biochemical Assay, BODIPY-GDP Exchange TR-FRET (Example 501; 3 nM KRAS WT, 3 nM SOS1, 60-minute incubation); conditions: read-out: KRas(wt) GDP HTRF IC50
In short: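 SOS1-mediated exchange assay: 3 nM biotin-KRAS WT with terbium-streptavidin, started with 3 nM SOS1 and 300 nM BODIPY-GDP, HEPES pH 7.5 with MgCl2. TR-FRET (520/490 nm) read after 60 min; normalized to DMSO and full-inhibition control, IC50 from 4-parameter Hill fit.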

KRAS WT [3] = molecular target: T1, KRAS WT; assay: KRAS WT Biochemical Assay, BODIPY-GDP Exchange TR-FRET (Example 502; 0.06 nM KRAS WT, 15 nM GDP, 300 nM SOS1, 120-minute incubation); conditions: read-out: KRas HTRF IC50
In short: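 IC50 from a 4-parameter Hill fit of percent inhibition, itself the TR-FRET 520/490 nm ratio scaled between DMSO and a fully inhibiting control. Reaction: 300 nM SOS1 and 300 nM BODIPY-GDP added to preformed 0.06 nM KRAS WT/15 nM GDP/Tb-streptavidin complex; 120 min incubation; pH 7.5 HEPES, MgCl2, DTT.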

T1 sequence (P01116-2 other isoform, or with tags, fused parts or gaps): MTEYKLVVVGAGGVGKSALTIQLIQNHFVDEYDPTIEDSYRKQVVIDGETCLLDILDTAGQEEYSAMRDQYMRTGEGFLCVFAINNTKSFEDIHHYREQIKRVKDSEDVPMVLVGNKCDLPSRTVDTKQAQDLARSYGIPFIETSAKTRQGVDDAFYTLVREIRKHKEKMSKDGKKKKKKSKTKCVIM
Sequence of KRAS G12D (P01116-2 other isoform, or with tags, fused parts or gaps G12D): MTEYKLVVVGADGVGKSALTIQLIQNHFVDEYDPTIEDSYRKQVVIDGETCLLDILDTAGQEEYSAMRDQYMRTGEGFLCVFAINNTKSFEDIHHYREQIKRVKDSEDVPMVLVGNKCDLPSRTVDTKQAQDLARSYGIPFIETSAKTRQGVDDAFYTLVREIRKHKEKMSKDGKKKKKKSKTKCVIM

C#Cc1cccc2cc(O)cc(-c3nc4c5c(nc(OC[C@@]67CCCN6C[C@H](F)C7)nc5c3F)N3C[C@H]5CC[C@H](N5)[C@H]3CO4)c12 [Compound 3, 5-ethynyl-4-((5aS,6S,9R)-1-fluoro-12-(((2R,7aS)-2-fluorotetrahydro-1H-pyrrolizin-7a(5H)-yl)methoxy)-5a,6,7,8,9,10-hexahydro-5H-4-oxa-3,10a,11,13,14-pentaaza-6,9-methanonaphtho[1,8-ab]heptalen-2-yl)naphthalen-2-ol]
IC50 ([1]; Homo sapiens, PC-9, 168 h): 20000 nM
IC50 (KRAS G12D): 0.058 nM
IC50 (KRAS WT [2]): 0.517 nM
IC50 (KRAS WT [3]): 0.757 nM

Cc1cc(N)cc(-c2nc3c4c(nc(OC[C@@]56CCCN5C[C@H](F)C6)nc4c2F)N2C[C@H]4CC[C@H](N4)[C@H]2[C@H](C)O3)c1C(F)(F)F [Compound 16, 3-((5S,5aS,6S,9R)-1-fluoro-12-(((2R,7aS)-2-fluorotetrahydro-1H-pyrrolizin-7a(5H)-yl)methoxy)-5-methyl-5a,6,7,8,9,10-hexahydro-5H-4-oxa-3,10a,11,13,14-pentaaza-6,9-methanonaphtho[1,8-ab]heptalen-2-yl)-5-methyl-4-(trifluoromethyl)aniline]
IC50 ([1]; Homo sapiens, PC-9, 168 h): 20000 nM
IC50 (KRAS G12D): 0.138 nM
IC50 (KRAS WT [2]): 0.668 nM
IC50 (KRAS WT [3]): 0.484 nM

Cc1cc(N)nc(-c2nc3c4c(nc(OC[C@@]56CCCN5C[C@H](F)C6)nc4c2F)N2C[C@H]4CC[C@H](N4)[C@H]2[C@H](C)O3)c1C(F)(F)F [Compound 43, 6-((5S,5aS,6S,9R)-1-Fluoro-12-(((2R,7aS)-2-fluorotetrahydro-1H-pyrrolizin-7a(5H)-yl)methoxy)-5-methyl-5a,6,7,8,9,10-hexahydro-5H-4-oxa-3,10a,11,13,14-pentaaza-6,9-methanonaphtho[1,8-ab]heptalen-2-yl)-4-methyl-5-(trifluoromethyl)pyridin-2-amine]
IC50 ([1]; Homo sapiens, PC-9, 168 h): 20000 nM
IC50 (KRAS G12D): 0.598 nM
IC50 (KRAS WT [2]): 16.6 nM

Cc1cc(N)nc(-c2nc3c4c(nc(OC[C@@]56CCCN5C[C@H](F)C6)nc4c2F)N2C[C@H]4CC[C@H](N4)[C@H]2CO3)c1C(F)(F)F [Compound 44, 6-((5aS,6S,9R)-1-fluoro-12-(((2R,7aS)-2-fluorotetrahydro-1H-pyrrolizin-7a(5H)-yl)methoxy)-5a,6,7,8,9,10-hexahydro-5H-4-oxa-3,10a,11,13,14-pentaaza-6,9-methanonaphtho[1,8-ab]heptalen-2-yl)-4-methyl-5-(trifluoromethyl)pyridin-2-amine]
IC50 ([1]; Homo sapiens, PC-9, 168 h): 20000 nM
IC50 (KRAS G12D): 0.68 nM
IC50 (KRAS WT [2]): 59 nM

C#Cc1cccc2cc(O)cc(-c3nc4c5c(ncnc5c3F)N3C[C@H]5CC[C@H](N5)[C@H]3[C@H](C)O4)c12 [Compound 54, 5-ethynyl-4-((5S,5aS,6S,9R)-1-fluoro-5-methyl-5a,6,7,8,9,10-hexahydro-5H-4-oxa-3,10a,11,13,14-pentaaza-6,9-methanonaphtho[1,8-ab]heptalen-2-yl)naphthalen-2-ol]
IC50 ([1]; Homo sapiens, PC-9, 168 h): 20000 nM
IC50 (KRAS G12D): 17.8 nM
IC50 (KRAS WT [2]): 1980 nM

C#Cc1c(F)ccc2cccc(-c3nc4c5c(ncnc5c3F)N3C[C@H]5CC[C@H](N5)[C@H]3[C@H](C)O4)c12 [Compound 56, (5S,5aS,6S,9R)-2-(8-ethynyl-7-fluoronaphthalen-1-yl)-1-fluoro-5-methyl-5a,6,7,8,9,10-hexahydro-5H-4-oxa-3,10a,11,13,14-pentaaza-6,9-methanonaphtho[1,8-ab]heptalene]
IC50 ([1]; Homo sapiens, PC-9, 168 h): 20000 nM
IC50 (KRAS G12D): 942 nM
IC50 (KRAS WT [2]): 46500 nM

C[C@@H]1Oc2nc(-c3cc(N)c(F)cc3C(F)(F)F)c(F)c3nc(OC[C@]45CCN4CC(F)(F)C5)nc(c23)N2C[C@H]3CC[C@H](N3)[C@@H]12 [Compound 71, 5-((5S,5aS,6S,9R)-12-(((R)-3,3-Difluoro-1-azabicyclo[3.2.0]heptan-5-yl)methoxy)-1-fluoro-5-methyl-5a,6,7,8,9,10-hexahydro-5H-4-oxa-3,10a,11,13,14-pentaaza-6,9-methanonaphtho[1,8-ab]heptalen-2-yl)-2-fluoro-4-(trifluoromethyl)aniline]
IC50 ([1]; Homo sapiens, PC-9, 168 h): 20000 nM
IC50 (KRAS G12D): 3.51 nM
IC50 (KRAS WT [3]): 313 nM

C[C@@H]1Oc2nc(-c3cnccc3C(F)(F)F)c(F)c3nc(OC[C@]45CCN4CC(F)(F)C5)nc(c23)N2C[C@H]3CC[C@H](N3)[C@@H]12 [Compound 78, (5S,5aS,6S,9R)-12-(((R)-3,3-Difluoro-1-azabicyclo[3.2.0]heptan-5-yl)methoxy)-1-fluoro-5-methyl-2-(4-(trifluoromethyl)pyridin-3-yl)-5a,6,7,8,9,10-hexahydro-5H-4-oxa-3,10a,11,13,14-pentaaza-6,9-methanonaphtho[1,8-ab]heptalene]
IC50 ([1]; Homo sapiens, PC-9, 168 h): 20000 nM
IC50 (KRAS G12D): 867 nM
IC50 (KRAS WT [3]): 200000 nM

C#Cc1c(F)ccc2cc(O)cc(-c3nc4c5c(nc(OC[C@@]67CCCN6C[C@H](F)C7)nc5c3F)N3C[C@H]5CC[C@H](N5)[C@H]3CO4)c12 [Compound 81, 5-Ethynyl-6-fluoro-4-((5aS,6S,9R)-1-fluoro-12-(((2R,7aS)-2-fluorotetrahydro-1H-pyrrolizin-7a(5H)-yl)methoxy)-5a,6,7,8,9,10-hexahydro-5H-4-oxa-3,10a,11,13,14-pentaaza-6,9-methanonaphtho[1,8-ab]heptalen-2-yl)naphthalen-2-ol]
IC50 ([1]; Homo sapiens, PC-9, 168 h): 20000 nM
IC50 (KRAS G12D): 0.085 nM
IC50 (KRAS WT [3]): 0.448 nM

C[C@@H]1Oc2nc(-c3nc(N)c(F)cc3C(F)(F)F)c(F)c3nc(OC[C@@]45CCCN4C[C@H](F)C5)nc(c23)N2C[C@H]3CC[C@H](N3)[C@@H]12 [Compound 84, 3-Fluoro-6-((5S,5aS,6S,9R)-1-fluoro-12-(((2R,7aS)-2-fluorotetrahydro-1H-pyrrolizin-7a(5H)-yl)methoxy)-5-methyl-5a,6,7,8,9,10-hexahydro-5H-4-oxa-3,10a,11,13,14-pentaaza-6,9-methanonaphtho[1,8-ab]heptalen-2-yl)-5-(trifluoromethyl)pyridin-2-amine]
IC50 ([1]; Homo sapiens, PC-9, 168 h): 20000 nM
IC50 (KRAS G12D): 24.9 nM
IC50 (KRAS WT [3]): 4310 nM

C[C@@H]1Oc2nc(-c3nc(N)ccc3C(F)(F)F)c(F)c3nc(OC[C@@]45CCCN4C[C@H](F)C5)nc(c23)N2C[C@H]3CC[C@H](N3)[C@@H]12 [Compound 85, 6-((5S,5aS,6S,9R)-1-fluoro-12-(((2R,7aS)-2-fluorotetrahydro-1H-pyrrolizin-7a(5H)-yl)methoxy)-5-methyl-5a,6,7,8,9,10-hexahydro-5H-4-oxa-3,10a-11,13,14-pentaaza-6,9-methanonaphtho[1,8-ab]heptalen-2-yl)-5-(trifluoromethyl)pyridin-2-amine]
IC50 ([1]; Homo sapiens, PC-9, 168 h): 20000 nM
IC50 (KRAS G12D): 3.28 nM
IC50 (KRAS WT [3]): 678 nM

C[C@@H]1Oc2nc(-c3nc(N)c(F)cc3C(F)(F)F)c(F)c3nc(OC[C@]45CCN4CC(F)(F)C5)nc(c23)N2C[C@H]3CC[C@H](N3)[C@@H]12 [Compound 87, 6-((5S,5aS,6S,9R)-12-(((R)-3,3-Difluoro-1-azabicyclo[3.2.0]heptan-5-yl)methoxy)-1-fluoro-5-methyl-5a,6,7,8,9,10-hexahydro-5H-4-oxa-3,10a,11,13,14-pentaaza-6,9-methanonaphtho[1,8-ab]heptalen-2-yl)-3-fluoro-5-(trifluoromethyl)pyridin-2-amine]
IC50 ([1]; Homo sapiens, PC-9, 168 h): 20000 nM
IC50 (KRAS G12D): 68.9 nM
IC50 (KRAS WT [3]): 16100 nM

Cc1cc(N)c(F)c(-c2nc3c4c(nc(OC[C@@]56CCN5CC(F)(F)C6)nc4c2F)N2C[C@H]4CC[C@H](N4)[C@H]2[C@H](C)O3)c1C(F)(F)F [Compound 92, 3-((5S,5aS,6S,9R)-12-(((S)-3,3-Difluoro-1-azabicyclo[3.2.0]heptan-5-yl)methoxy)-1-fluoro-5-methyl-5a,6,7,8,9,10-hexahydro-5H-4-oxa-3,10a,11,13,14-pentaaza-6,9-methanonaphtho[1,8-ab]heptalen-2-yl)-2-fluoro-5-methyl-4-(trifluoromethyl)aniline]
IC50 [1]: 8130 nM
IC50 (KRAS G12D): 0.76 nM and 1.01 nM
IC50 (KRAS WT [3]): 34.9 nM and 148 nM

— patent publication US20240025919A1, “AZA-TETRACYCLIC OXAZEPINE COMPOUNDS AND USES THEREOF” (Genentech, Inc., priority 2022, published 2024)
